Test results taken from patent US11992010B2, “Use of 4-(phenylethynyl) benzoic acid” (China Jiliang University, priority 2022, dated 2024).

Key:
[1] = tested on: rice radicle; test: Rice radicle elongation; assay type: in vivo, Oryza sativa L. Datian Nip
Procedure: Rice cultivar (Oryza sativa L. Datian Nip) was provided by Zhejiang Academy of Agricultural Sciences.
Every 1 μL 4-(Phenylethynyl) benzoic acid mother solution in Example 1 was diluted with water to 2 mL or 500 μL to prepare 50 μM or 200 μM 4-(Phenylethynyl) benzoic acid treatment solutions. 0.05% DMSO water solution was used as the control solution for 50 μM 4-(Phenylethynyl) benzoic acid treatment solution and 0.2% DMSO water solution was used as the control solution for 200 μM 4-(Phenylethynyl) benzoic acid treatment solution respectively.
A volume of 10 ml 4-(Phenylethynyl) benzoic acid treatment solutions at various concentrations were added to 9-cm-diameter Petri dishes with two layers of filter papers. 100 seeds were placed on the moist filter paper in a Petri dish. 0.05% DMSO water solution was used as control for 50 μM 4-(Phenylethynyl) benzoic acid treatment solution. 0.2% DMSO water solution was used as control for 200 μM 4-(Phenylethynyl) benzoic acid treatment solution. There were three replicates for each treatment. Seeds were germinated under light at 28° C. The seeds that germinated between the second and the third day after imbibition were chosen and their radicle length were measured on the fifth day.

[2] = tested on: Arabidopsis seeds; test: Seed germination experiment on Arabidopsis; assay type: in vivo, Arabidopsis thaliana L. Columbia, Col-0 ecotype; details: for Germination potential/% (48 h): control 45.31 ± 6.63; for Ultimate germination rate/%: control 88.32 ± 1.15
Procedure: (§1) The seeds of Arabidopsis wild type (Arabidopsis thaliana L. Columbia, Col-0 ecotype) were provided by the lab of plant quality & safety biology in China Jiliang university. The commercial tomato seeds (Solanum lycopersicum CV. Zhefen 202) were provided by Zhejiang Academy of Agricultural Sciences.
(§2) The 4-(Phenylethynyl) benzoic acid solutions were prepared as follows: 22.9 mg 4-(Phenylethynyl) benzoic acid was weighted and dissolved in 1 mL DMSO to make the 100 mM 4-(Phenylethynyl) benzoic acid mother solution. The working solutions applied were prepared by diluting the 4-(phenylethynyl) benzoic acid mother solution with water. For example, the 4-(Phenylethynyl) benzoic acid treatment solutions at the concentrations of 1 μM, 10 μM, and 50 μM were prepared by diluting 1 μL of the 100 mM 4-(phenylethynyl) benzoic acid mother solution to 100 mL, 10 mL, or 2 mL with water. DMSO was supplemented to a final concentration of 0.05% (V:V).
(§3) 0.05% DMSO water solution then used as a control solution.
Arabidopsis seeds were soaked in 4-(Phenylethynyl) benzoic acid treatment solutions at the concentrations of 1 μM, 10 μM, and 50 μM for 3 days under dark at 4° C., respectively. Seeds soaked in the 0.05% DMSO water solution were used as control. On the fourth day, Seeds were transformed to light at 25° C. in 2-cm-diameter Petri dishes with two layers of filter papers. Different concentrations of 4-(Phenylethynyl) benzoic acid treatment solutions were added as germination liquids. 0.05% DMSO water solution was used as control. 30-50 seeds were placed on the moist filter paper in a Petri dish. There were three replicates for each treatment. After germination for 30 h, 42 h, 48 h, and 66 h in a growth chamber (25° C.), the germination rate (the proportion of the total number of the seeds germinated corresponding to each time point after the start of the germination experiment to the total number of seeds to be tested) was calculated, respectively. The germination rate at 48 h was adopted as the germination potential (the proportion of the total number of the seeds germinated corresponding to 48 h after the start of the germination experiment to the total number of seeds to be tested).

[3] = tested on: tomato seeds; test: Seed germination experiment on tomato; assay type: in vivo, Solanum lycopersicum CV. Zhefen 202; details: 50 μM
Procedure: as §1, §2, §3
For tomato, 80 seeds were sowed on two layers of filter papers in a 6-cm-diameter Petri dish with germination liquids. 4-(Phenylethynyl) benzoic acid treatment solution at the concentration of 50 μM and 0.05% DMSO water solution (Control) were used as the germination liquids. There were three replicates for each treatment. After germination for 24 h, 36 h, 48 h, 60 h, 72 h, 84 h in a growth chamber (25° C.), the germination rate (the proportion of the total number of the seeds germinated corresponding to each time point after the start of the germination experiment to the total number of seeds to be tested) was calculated, respectively. The germination rate at 48 h was adopted as the germination potential (the proportion of the total number of the seeds germinated corresponding to 48 h after the start of the germination experiment to the total number of seeds to be tested).

[4] = tested on: stomata of tomato leaves; test: Stomata closure in abaxial epidermal strips of tomato; assay type: cell-based, Solanum lycopersicum CV. Zhefen 202; details: 50 μM, 3 hours, compared to the control
Procedure: The commercial tomato seeds (Solanum lycopersicum CV. Zhefen 202) were provided by Zhejiang Academy of Agricultural Sciences.
The concentration of 4-(Phenylethynyl) benzoic acid used in this example was 50 μM. Every 1 μL of the 100 mM 4-(Phenylethynyl) benzoic acid mother solution in Example 1 was diluted to 2 mL with MES-KCl buffer (10 mM MES, 50 mM KCl, pH 6.15). 0.5% Tween-80 (V:V) was added to increase the solubility and stability of 4-(Phenylethynyl) benzoic acid. The solution was mixed evenly by stirring efficiently and it was ensured that no 4-(phenylethynyl) benzoic acid was precipitated, and finally 50 μM 4-(phenylethynyl) benzoic acid was prepared.
The control solution was the MES-KCl buffer containing 0.05% DMSO and 0.5% Tween-80.
Abaxial epidermal strips of tomato were firstly peeled from washed leaves, then immersed in MES-KCl buffer (10 mM MES, 50 mM KCl, pH 6.15) under light at 28° C. to induce stomatal opening. After 2 hours, abaxial epidermal strips of tomato were treated with the control solution (MES-KCl buffer with 0.05% DMSO and 0.5% Tween-80) and 50 μM 4-(Phenylethynyl) benzoic acid treatment solution (MES-KCl buffer with 50 μM 4-(Phenylethynyl) benzoic acid, 0.05% DMSO and 0.5% Tween-80) for 3 hours, respectively. […] Widths and lengths of stomata were measured and the aperture ratios (width:length) were calculated. […]

O=C(O)c1ccc(C#Cc2ccccc2)cc1 [4-(Phenylethynyl) benzoic acid]
rice radicle elongation (in words) ([1]; 50 μM and 200 μM, relative to their controls, 200 μM significantly better than 50 μM): significantly inhibited rice radicle elongation
activity at 50 µM ([1]; Oryza sativa, rice, 50 μM, control 0.05% DMSO, read-out: radicle length, % of control treatment): 48.2%
activity at 200 µM ([1]; Oryza sativa, rice, 200 μM, control 0.2% DMSO, read-out: radicle length, % of control treatment): 20.3%
germination of Arabidopsis seeds (in words) ([2]; 10 μM and 50 μM, 50 μM exhibited a stronger effect): significantly slowed down the germination
Germination potential/% (48 h) ([2]; Arabidopsis, 1 μM): 37.50 ± 7.50 a %
Ultimate germination rate/% ([2]; Arabidopsis, 1 μM): 92.33 ± 0.29 a %
decrease in germination potential ([2]; Arabidopsis, 10 μM): > 20%
Germination potential/% (48 h) ([2]; Arabidopsis, 10 μM): 14.53 ± 6.40 b %
Ultimate germination rate/% ([2]; Arabidopsis, 10 μM): 85.24 ± 7.41 a %
germination rate reduction ultimately ([2]; Arabidopsis, 50 μM): > 80%
Ultimate germination rate/% ([2]; Arabidopsis, 50 μM): 2.30 ± 3.98 b %
tomato seeds germination (in words) ([3]; compared to the control): significantly inhibited the germination process and reduced the germination rate
Germination potential/% (48 h) ([3]; Tomato, 48 h, control 20.83 ± 1.90): 0.00 ± 0.00 b %
Ultimate germination rate/% ([3]; Tomato, control 88.75 ± 6.25): 10.41 ± 2.88 b %
aperture ratio (width:length) (in words) [4]: significantly reduced
stomata aperture (in words) [4]: significantly reduced
